The values that follow come from ChEMBL document CHEMBL3351829, “Nostosins, Trypsin Inhibitors Isolated from the Terrestrial Cyanobacterium Nostoc sp. Strain FSN” (J Nat Prod, 2014).

The target in one experiment is Trypsin (Sus scrofa) (UniProt P00761). The experiment in a line: (§1) Inhibition of pig pancreas trypsin type IX-S using Boc-Gln-Ala-Arg-MCA substrate by 7-amino-4-methylcoumarin release based spectrofluorometry. Particulars: TDE = time-dependent effect.
Experiment [1] concerns the target T1, Trypsin (Sus scrofa, UniProt P00761). Described as §1.
Experiment [2] addresses T1, Trypsin. As to the kind of experiment: Inhibition of pig pancreas trypsin type IX-S.

Where only a bound is given, the exact number is not on record here.

T1 sequence (P00761 whole entry): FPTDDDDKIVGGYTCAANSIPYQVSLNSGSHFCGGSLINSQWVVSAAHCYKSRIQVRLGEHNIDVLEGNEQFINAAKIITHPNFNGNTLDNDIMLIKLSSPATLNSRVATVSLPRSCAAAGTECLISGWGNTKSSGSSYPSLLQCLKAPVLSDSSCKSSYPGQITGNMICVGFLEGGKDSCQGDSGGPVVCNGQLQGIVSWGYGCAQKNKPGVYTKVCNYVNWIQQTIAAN
Sequence of Trypsin (Sus scrofa) (P00761 whole entry): as above

Consider `CC[C@H](C)[C@H](NC(=O)C(O)CCc1ccc(O)cc1)C(=O)N[C@H](C=O)CCCNC(=N)N` (some centres not stated), for which the inhibition entry at Trypsin (Sus scrofa) is “tde”. In addition, half-maximal inhibition at Trypsin [1] (IC50) required 350 nM. On to `CC(=O)N[C@@H](CC(C)C)C(=O)N[C@@H](CC(C)C)C(=O)N[C@H](C=O)CCCNC(=N)N` [LEUPEPTIN], for which the results for the IC50 at Trypsin [1] and on Trypsin [2] were 500 nM and more than 200 nM, respectively. At Trypsin [1], `C[C@H]1C[C@@H](C(=O)NC(C=O)CCCNC(=N)N)N(C(=O)[C@@H](CCc2ccc(O)cc2)NC(=O)[C@H](O)Cc2ccc(O)cc2)C1` (some centres not stated) [SPUMIGIN E] yielded an IC50 of less than 100 nM. For `CC[C@H](C)[C@H](NC(=O)C(O)CCc1ccc(O)cc1)C(=O)N[C@H](CO)CCCNC(=N)N` (some centres not stated), the inhibition result at Trypsin (Sus scrofa) was “tde”. Half-maximal inhibition against Trypsin [1] (IC50) was put at 55000 nM.

As a reminder, the IC50 is the concentration that inhibits the measured activity by half. A lower IC50 goes with inhibition by little substance.
